Patent publication US20050197406A1, “Method of treatment of lung cancer” (priority 1999, published 2005)
Where a name gives a salt, the structure may show the parent alone.

Experiments:
[1] = system: A549 human lung cancer cells; experiment: A549 human lung cancer xenograft model, β-lapachone alone or with gemcitabine; assay type: in vivo; conditions: for toxicity: female, athymic nude (Ncr), mouse, in vivo, ip; for retardation of tumor growth, monotherapy: β-lapachone 60 mg/kg or gemcitabine 120 mg/kg alone, e.g. days 24 and 27
Procedure: Mice receive a total of eight treatments. Mean tumor volume is analyzed; data points in FIG. 4 represent the arithmetic mean +/−SEM of five tumors.

60 cancer cell lines [2] = experiment: NCI in vitro screen of 60 cancer cell lines (sulforhodamine B assay); assay type: cell-based; conditions: Homo sapiens; mean across all cells of NCI60; read-out: LC50 (log 10 molar concentration causing 50% lethality), mean across all cells (converted)
Procedure: The NCI assays are performed under standardized conditions not designed to mimic the conditions of dosing and use the sulforhodamine B assay as the endpoint. […] When compared to many FDA approved chemotherapeutic agents for common cancer types with publicly available data, none of the compared approved drugs exceed the mean of β-lapachone across all cells and only mitoxantrone equals it. FIG. 2.

[3] = system: A549 human lung cancer cells; assay type: in vivo; conditions: 60 mg/kg intraperitoneally every three days, 8 treatments
Procedure: The animals are randomized into three groups of seven animals per group. […] Mean tumor volume is then analyzed.

normal cells = experiment: In vitro experiments using cell lines of various tissue origins (toxicity to normal cells); assay type: cell-based
60 cancer cell lines [4] = conditions: FDA approved chemotherapeutic agents, publicly available data; cited from earlier work
[5] = ip every three days, eight treatments

SMILES	toxicity [1]	retardation of tumor growth, monotherapy [1, 5]	retardation of tumor growth, 60 mg/kg compared with 40 mg/kg ([1]; β-lapachone in 40% HPBCD, ip every three days, eight treatments)	CC50 (60 cancer cell lines [2]) [µM]	reduction of mean tumor volume [3]	toxicity to normal cells (normal cells)	mean LC50 across all cells compared with that of β-lapachone (60 cancer cell lines [4])
CC1(C)CCC2=C(O1)c1ccccc1C(=O)C2=O [β-lapachone, 3,4-dihydro-2,2-dimethyl-2H-naphtho[1,2-b]pyran-5,6-dione]	No significant toxicity	retarded tumor growth to a similar extent	more effective at retarding tumor growth	8.51	approximately 50%	relatively non-toxic to normal cells	
O=C1c2c(O)ccc(O)c2C(=O)c2c(NCCNCCO)ccc(NCCNCCO)c21 [mitoxantrone]							equals it
Nc1ccn([C@@H]2O[C@H](CO)[C@@H](O)C2(F)F)c(=O)n1 [gemcitabine, 2′-deoxy-2′,2′-difluorocytidine monohydrochloride (β-isomer), reference compound]	No significant toxicity	retarded tumor growth to a similar extent					
